Where only a bound is given, the exact number is not on record here.

Holding throughout (assay type): functional
For test [1], the target named is T1, Cdk-related protein kinase 6 (Plasmodium falciparum, UniProt O77239).
T1 sequence (O77239 whole entry): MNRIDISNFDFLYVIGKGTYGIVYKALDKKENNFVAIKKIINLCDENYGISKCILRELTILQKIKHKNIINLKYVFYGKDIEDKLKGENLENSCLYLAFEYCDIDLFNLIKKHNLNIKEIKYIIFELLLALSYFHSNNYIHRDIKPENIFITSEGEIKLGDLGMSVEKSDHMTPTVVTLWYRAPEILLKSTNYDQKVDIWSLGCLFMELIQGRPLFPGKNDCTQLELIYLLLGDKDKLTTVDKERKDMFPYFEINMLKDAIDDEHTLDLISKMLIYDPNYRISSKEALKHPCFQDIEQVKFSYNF
In words: Final concentrations were 1.5 uM ATP, 5 mM MnCl2, and 15 ug/ml PK6 in a buffer of 100 mM Tris-HCl (pH 7.5). 50 ug/mL MBP was provided as the substrate; 10 uM staurosporine was used as a control inhibitor. Incubation time was 3 hours and 40 minutes.The catalytic activity of each kinase was considered proportional to ATP consumed, as determined from measurements of residual [ATP] with the luciferase-based reagent Kinase-Glo (Promega) following incubation. Luminescence (proportional to residual [ATP]) was measured on the plate readers FLx800 (BioTek Instruments, Winooski, VT, USA) and MicroBeta2. A general note: In Kinase-Glo more light means more ATP remaining.

For test [2], the target named is T2, Putative uncharacterized protein pk7 (Plasmodium falciparum, UniProt O96214).
T2 sequence (O96214 whole entry): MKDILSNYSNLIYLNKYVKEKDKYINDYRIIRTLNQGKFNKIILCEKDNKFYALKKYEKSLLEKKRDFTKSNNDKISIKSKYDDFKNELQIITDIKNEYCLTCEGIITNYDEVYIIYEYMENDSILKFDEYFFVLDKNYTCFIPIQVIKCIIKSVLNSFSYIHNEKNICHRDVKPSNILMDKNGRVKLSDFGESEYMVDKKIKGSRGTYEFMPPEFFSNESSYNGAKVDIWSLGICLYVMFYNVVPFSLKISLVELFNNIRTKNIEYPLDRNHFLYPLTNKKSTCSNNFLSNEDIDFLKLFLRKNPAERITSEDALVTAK
Briefly: Final concentrations were 1 uM ATP, 2 mM DTT, 20 mM MgCl2, 2 mM MnCl2, 0.01% BSA, and 6 ug/ml PK7, in a buffer of 20 mM Tris-HCl (pH 7.5). The enzyme itself was the only substrate present (since autophosphorylation occurs); 100 uM 1NA-PP1 was used as a control inhibitor. Incubation time was 3 hours.

The target of test [3] is T3, Mitogen-activated protein kinase (Plasmodium falciparum, UniProt Q25917).
T3 sequence (Q25917 whole entry): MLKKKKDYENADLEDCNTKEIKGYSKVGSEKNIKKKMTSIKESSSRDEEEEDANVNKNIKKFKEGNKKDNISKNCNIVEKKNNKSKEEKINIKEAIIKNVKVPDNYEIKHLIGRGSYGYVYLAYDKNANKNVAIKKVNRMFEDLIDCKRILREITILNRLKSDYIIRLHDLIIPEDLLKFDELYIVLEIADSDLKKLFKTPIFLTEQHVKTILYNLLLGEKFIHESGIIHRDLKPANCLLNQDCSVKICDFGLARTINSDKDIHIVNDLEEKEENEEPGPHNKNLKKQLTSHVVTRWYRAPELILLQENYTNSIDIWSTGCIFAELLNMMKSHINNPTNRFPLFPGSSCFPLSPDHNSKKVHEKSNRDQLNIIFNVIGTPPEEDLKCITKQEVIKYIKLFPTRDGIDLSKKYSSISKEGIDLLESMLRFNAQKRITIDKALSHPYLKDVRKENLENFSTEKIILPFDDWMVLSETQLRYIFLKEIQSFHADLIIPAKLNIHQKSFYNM
Briefly: Final concentrations were 1 uM ATP, 0.5 mM DTT, 1 mM MgCl2, 0.5 mg/mL BSA, and 10 ug/ml MAP2 in a buffer of 50 mM HEPES (pH 7.0). 0.5 mg/mL histone III-S served as the substrate (13); 100 uM AMP-PNP, an ATP analog, was used as a control inhibitor. Incubation time was 4 hours.

Test [4] has as its target Calcium-dependent protein kinase 1 (Plasmodium falciparum, UniProt P62344). Briefly: MMV: CDPK1 Protein kinase inhibition assay using recombinant PfCDPK1, syntide 2 peptide substrate, ATP and KinaseGlo to measure % inhibition at 1 uM MMV box compound.
Test [5] deals with T4, Calcium-dependent protein kinase 4 (Plasmodium falciparum (isolate 3D7), UniProt Q8IBS5).
T4 sequence (Q8IBS5 whole entry): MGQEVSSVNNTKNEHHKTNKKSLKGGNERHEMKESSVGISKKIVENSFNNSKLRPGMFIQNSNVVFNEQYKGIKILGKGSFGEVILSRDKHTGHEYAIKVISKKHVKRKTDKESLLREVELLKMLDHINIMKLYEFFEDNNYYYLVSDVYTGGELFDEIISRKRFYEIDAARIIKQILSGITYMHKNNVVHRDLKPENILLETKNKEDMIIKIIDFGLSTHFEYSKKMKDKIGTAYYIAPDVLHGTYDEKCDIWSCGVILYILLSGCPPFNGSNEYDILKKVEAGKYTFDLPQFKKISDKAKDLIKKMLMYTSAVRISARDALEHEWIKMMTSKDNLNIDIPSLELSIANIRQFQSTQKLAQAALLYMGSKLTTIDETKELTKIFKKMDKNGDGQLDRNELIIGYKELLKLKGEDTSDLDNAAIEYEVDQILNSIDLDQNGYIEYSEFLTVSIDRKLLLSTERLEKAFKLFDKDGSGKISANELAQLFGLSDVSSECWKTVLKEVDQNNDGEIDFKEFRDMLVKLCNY
Briefly: MMV: CDPK4 Protein kinase inhibition assay using recombinant PfCDPK4, syntide2 peptide substrate, ATP and KinaseGlo to measure % inhibition at 1 uM MMV box compound.

Test [6] concerns the target T5, Proline--tRNA ligase (Plasmodium falciparum (isolate 3D7), UniProt Q8I5R7).
T5 sequence (Q8I5R7 whole entry): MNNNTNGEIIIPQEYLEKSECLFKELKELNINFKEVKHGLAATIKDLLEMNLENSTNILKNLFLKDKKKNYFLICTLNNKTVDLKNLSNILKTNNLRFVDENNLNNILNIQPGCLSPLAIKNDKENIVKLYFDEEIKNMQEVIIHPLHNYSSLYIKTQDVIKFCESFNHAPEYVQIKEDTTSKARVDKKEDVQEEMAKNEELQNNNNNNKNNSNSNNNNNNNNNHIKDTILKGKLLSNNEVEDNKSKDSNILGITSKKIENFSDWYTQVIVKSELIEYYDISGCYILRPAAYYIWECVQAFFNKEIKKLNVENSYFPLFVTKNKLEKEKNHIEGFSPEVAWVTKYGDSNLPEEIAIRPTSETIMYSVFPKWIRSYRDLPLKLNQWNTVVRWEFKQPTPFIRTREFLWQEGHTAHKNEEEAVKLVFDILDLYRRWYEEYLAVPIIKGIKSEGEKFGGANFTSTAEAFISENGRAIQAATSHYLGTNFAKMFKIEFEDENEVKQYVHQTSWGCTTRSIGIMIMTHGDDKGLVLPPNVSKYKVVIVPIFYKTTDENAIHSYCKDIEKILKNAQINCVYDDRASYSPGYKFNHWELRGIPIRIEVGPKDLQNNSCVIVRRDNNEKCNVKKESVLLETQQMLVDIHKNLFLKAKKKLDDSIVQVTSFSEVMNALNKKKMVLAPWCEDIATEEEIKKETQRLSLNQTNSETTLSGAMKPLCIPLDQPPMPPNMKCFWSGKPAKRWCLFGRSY
In words: MMV: ProRS recombinant Plasmodium falciparum Prolyl-tRNA-synthetase, assay with yeast tRNA, ATP, and proline and 3 uM MMV malaria box compound, assay read out with kinase glo as % inhibition.

Test [7] deals with Lysine--tRNA ligase (Plasmodium falciparum (isolate 3D7), UniProt Q8IDJ8). Briefly: MMV: KRS recombinant Plasmodium falciparum Lysyl-tRNA-synthetase, assay with yeast tRNA, ATP, and lysine and 3 uM MMV malaria box compound, assay read out with kinase glo as % inhibition.
Sequence of Lysine--tRNA ligase (Q8IDJ8 whole entry): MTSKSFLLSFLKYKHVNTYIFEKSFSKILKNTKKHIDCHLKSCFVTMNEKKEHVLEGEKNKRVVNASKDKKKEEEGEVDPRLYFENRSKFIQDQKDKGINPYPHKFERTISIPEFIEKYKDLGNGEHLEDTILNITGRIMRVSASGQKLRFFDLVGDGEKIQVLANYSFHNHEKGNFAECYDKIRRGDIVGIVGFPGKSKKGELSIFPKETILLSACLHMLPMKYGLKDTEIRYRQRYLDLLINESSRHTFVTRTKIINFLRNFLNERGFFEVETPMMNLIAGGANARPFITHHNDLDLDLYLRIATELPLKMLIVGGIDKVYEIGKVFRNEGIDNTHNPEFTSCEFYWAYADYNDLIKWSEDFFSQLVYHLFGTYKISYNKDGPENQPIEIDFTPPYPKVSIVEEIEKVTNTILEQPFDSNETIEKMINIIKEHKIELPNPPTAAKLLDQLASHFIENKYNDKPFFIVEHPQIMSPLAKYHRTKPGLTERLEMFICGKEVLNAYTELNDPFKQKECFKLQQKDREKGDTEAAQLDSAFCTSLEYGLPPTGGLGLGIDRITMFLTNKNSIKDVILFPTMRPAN

Sequence of Calcium-dependent protein kinase 1 (P62344 whole entry): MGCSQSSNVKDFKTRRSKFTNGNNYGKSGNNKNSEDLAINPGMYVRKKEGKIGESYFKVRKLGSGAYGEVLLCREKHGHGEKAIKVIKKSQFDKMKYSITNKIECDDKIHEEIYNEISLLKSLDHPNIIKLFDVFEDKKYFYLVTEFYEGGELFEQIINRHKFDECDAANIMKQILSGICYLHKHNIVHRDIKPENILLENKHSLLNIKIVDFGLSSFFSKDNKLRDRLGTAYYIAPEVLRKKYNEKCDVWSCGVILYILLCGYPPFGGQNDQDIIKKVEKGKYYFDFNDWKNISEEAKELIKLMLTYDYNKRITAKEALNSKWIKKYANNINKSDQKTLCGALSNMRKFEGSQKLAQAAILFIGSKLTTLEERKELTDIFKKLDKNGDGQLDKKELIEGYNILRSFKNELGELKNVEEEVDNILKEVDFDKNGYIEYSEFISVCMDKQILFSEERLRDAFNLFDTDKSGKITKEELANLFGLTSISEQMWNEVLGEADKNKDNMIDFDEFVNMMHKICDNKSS

What is called IC50 is the concentration that gives 50% inhibition. Regarding `COc1cccc(C(=O)Nc2ccc(-c3nc4ccccc4[nH]3)cc2)c1`, the IC50 in test [1] was above 1 µM; in test [2] it was above 1 µM; in test [3] it was above 1 µM; in test [4], above 1 µM; in test [5] it was above 1 µM; in test [6] it was above 2.5 µM. Besides, in test [7], the IC50 was above 2.5 µM.
With `COc1ccc(C=C2SC(Nc3ccc(F)cc3)=NC2=O)c(OC)c1`, the IC50 in test [1] was above 1 µM; in test [2], above 1 µM; in test [3], above 1 µM; in test [4], above 1 µM; in test [5], above 1 µM; in test [6], above 2.5 µM. The IC50 in test [7] was above 2.5 µM.
Turning to `CCOc1ccc(C2N(C)c3ccccc3N2C)cc1`, the 50% inhibitory concentration (IC50) in test [1] is above 1 µM; in test [2], above 1 µM; in test [3], above 1 µM; in test [4], above 1 µM; in test [5], above 1 µM; in test [6], above 2.5 µM. Also, the half-maximal inhibitory concentration (IC50) in test [7] was above 2.5 µM.
On to `O=C(Nc1cccc(C(F)(F)F)c1)c1cc(Cl)ccc1O`, for which the IC50 in test [1] was above 1 µM; in test [2], above 1 µM; in test [3], above 1 µM; in test [4], above 1 µM; in test [5] it was above 1 µM; in test [6], above 2.5 µM. The IC50 in test [7] was above 2.5 µM.
In the case of `COc1cc(C(=O)Nc2nc3c(cc4c5c(cccc53)CC4)s2)cc(OC)c1OC`, the IC50 in test [1] was above 1 µM; in test [2], above 1 µM; in test [3] it was above 1 µM; in test [4] it was above 1 µM; in test [5], above 1 µM; in test [6] it was above 2.5 µM. The IC50 in test [7] was above 2.5 µM.
As to `Cc1c(C)n(CC(O)CNC2CCCCC2C)c2ccccc12` (stereo not drawn), the IC50 is above 1 µM in test [1]; above 1 µM in test [2]; above 1 µM in test [3]; above 1 µM in test [4]; above 1 µM in test [5]; above 2.5 µM in test [6]. Further, the IC50 in test [7] is above 2.5 µM.
Consider `C=C(C)CCC(C)N1CCC(N2CCC(C(=O)NCCc3ccccc3)CC2)CC1` (stereo not drawn), for which the IC50 in test [1] was above 1 µM; in test [2], above 1 µM; in test [3], above 1 µM; in test [4], above 1 µM; in test [5], above 1 µM; in test [6], above 2.5 µM. Besides, the IC50 in test [7] is above 2.5 µM.
As for `COc1ccc(Nc2cc(C)nc(NCc3ccccc3)n2)cc1`, the IC50 in test [1] is above 1 µM; in test [2] it was above 1 µM; in test [3], above 1 µM; in test [4], above 1 µM; in test [5], above 1 µM; in test [6] it was above 2.5 µM. Besides, the IC50 in test [7] is above 2.5 µM.
For `COc1ccc(-c2nc(N3CCN(C(=O)C4CCCCC4)CC3)c3c4c(sc3n2)CCCC4)cc1`, the IC50 in test [1] is above 1 µM; in test [2], above 1 µM; in test [3] it was above 1 µM; in test [4] it was above 1 µM; in test [5], above 1 µM; in test [6], above 2.5 µM. The IC50 in test [7] is above 2.5 µM.
In the case of `O=C(CCc1ccccc1)c1ccccc1OCC(O)CN1CCCCC1` (stereo not drawn), the IC50 is above 1 µM in test [1]; above 1 µM in test [2]; above 1 µM in test [3]; above 1 µM in test [4]; above 1 µM in test [5]; above 2.5 µM in test [6]. The IC50 in test [7] was above 2.5 µM.
Take `Cc1ccc(N2C(=O)C3C(C2=O)C2(c4ccccc4)C(=O)C3(c3ccccc3)C(c3ccccc3)=C2c2ccccc2)cc1` (stereo not drawn): the IC50 in test [1] was above 1 µM; in test [2] it was above 1 µM; in test [3], above 1 µM; in test [4], above 1 µM; in test [5], above 1 µM; in test [6] it was above 2.5 µM. For the same compound, in test [7], the IC50 was above 2.5 µM.
`CC(C)(C)c1ccc(C(=O)Nc2nc3ccccc3s2)cc1`: the concentration for half-maximal inhibition (IC50) is above 1 µM in test [1]; above 1 µM in test [2]; above 1 µM in test [3]; above 1 µM in test [4]; above 1 µM in test [5]; above 2.5 µM in test [6]. Moreover, the IC50 in test [7] was above 2.5 µM.
Take `N#Cc1nc(Cc2cccc3ccccc23)oc1N1CCN(C(c2ccccc2)c2ccccc2)CC1`: the IC50 in test [1] is above 1 µM; in test [2] it was above 1 µM; in test [3], above 1 µM; in test [4] it was above 1 µM; in test [5] it was above 1 µM; in test [6] it was above 2.5 µM. The half-inhibitory concentration (IC50) in test [7] was above 2.5 µM.
With `Cc1cc(NC(=O)C2c3ccccc3C(=O)N(CC(C)C)C2c2cccs2)no1` (stereo not drawn), the IC50 in test [1] was above 1 µM; in test [2], above 1 µM; in test [3], above 1 µM; in test [4] it was above 1 µM; in test [5], above 1 µM; in test [6] it was above 2.5 µM. Further, the IC50 in test [7] was above 2.5 µM.
